Molecules are shown by their SMILES. Calls of active or inactive are those of the source.

A short description of data set [1]: Shn3 3'UTR reporter inhibitors, dose response, cell-based, Clone20 osteoblasts, firefly luciferase, cherry-picked (AID 624132).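 Further: firefly luciferase luminescence from reporter carrying the Shn3 3'UTR in osteoblasts.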 It counts as functional.
A short description of data set [2]: control 3'UTR Renilla luciferase suppression, dose response, counter-screen for Shn3 inhibitor project, cell-based, Clone20-Shn3RL, cherry-picked (AID 624133). It counts as functional. A general note: Counterscreens check selectivity or assay interference.
Data set [3] is described as follows: microbe, parasite or virus in culture. It counts as functional. Conditions: Mycobacterium tuberculosis.
In another data set the target is Beta-galactosidase (Escherichia coli, UniProt Q8VNN2). The data set is described as follows: beta-galactosidase enzyme inhibitors and activators, dose response, artefact control for CCR6 antagonist project, biochemical, E. coli enzyme, set 3 (AID 504712). It is filed as functional.
A short description of data set [4]: Luminescence Cell-Based Dose Retest to Confirm Inhibitors of Cancer Stem Cells. [Related pubchem assays (depositor defined):AID2717, AID2721]. Conditions: Homo sapiens. It is filed as functional.
Data set [5] in a line: HepG2 cell cytotoxicity, dose response, cytotoxicity control for Shn3 inhibitor project, CellTiter-Glo, cherry-picked (AID 624134). It is filed as functional, cell-based. (In general: ATP-based viability assays read luminescence as a measure of living cells.)
In the next data set the target is Exodeoxyribonuclease V (Escherichia coli (strain K12), UniProt P04993+P07648+P08394). Briefly: E. coli RecBCD inhibitors, dose response, counter-screen for AddAB inhibitor project, absorbance, V66 E. coli, mutant T4 phage (AID 492957). It counts as functional, cell-based, Escherichia coli str. K-12 substr. MG1655.
Exodeoxyribonuclease V, sequence (P04993 whole entry): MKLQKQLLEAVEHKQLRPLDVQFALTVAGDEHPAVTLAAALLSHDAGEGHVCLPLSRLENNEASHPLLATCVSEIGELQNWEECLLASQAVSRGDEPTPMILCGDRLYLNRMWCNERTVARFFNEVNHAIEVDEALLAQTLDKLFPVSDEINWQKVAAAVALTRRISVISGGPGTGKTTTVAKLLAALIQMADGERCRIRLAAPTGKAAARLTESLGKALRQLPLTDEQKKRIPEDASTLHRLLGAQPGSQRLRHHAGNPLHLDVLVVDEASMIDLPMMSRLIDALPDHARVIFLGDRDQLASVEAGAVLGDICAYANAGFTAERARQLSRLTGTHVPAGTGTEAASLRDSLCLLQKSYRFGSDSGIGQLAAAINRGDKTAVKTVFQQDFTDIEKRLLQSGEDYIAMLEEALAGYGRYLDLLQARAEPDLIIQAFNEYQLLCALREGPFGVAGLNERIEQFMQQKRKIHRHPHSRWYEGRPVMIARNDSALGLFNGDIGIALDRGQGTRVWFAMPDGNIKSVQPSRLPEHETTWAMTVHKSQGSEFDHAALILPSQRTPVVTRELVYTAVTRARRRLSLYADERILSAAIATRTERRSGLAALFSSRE
Exodeoxyribonuclease V, sequence (P07648 whole entry): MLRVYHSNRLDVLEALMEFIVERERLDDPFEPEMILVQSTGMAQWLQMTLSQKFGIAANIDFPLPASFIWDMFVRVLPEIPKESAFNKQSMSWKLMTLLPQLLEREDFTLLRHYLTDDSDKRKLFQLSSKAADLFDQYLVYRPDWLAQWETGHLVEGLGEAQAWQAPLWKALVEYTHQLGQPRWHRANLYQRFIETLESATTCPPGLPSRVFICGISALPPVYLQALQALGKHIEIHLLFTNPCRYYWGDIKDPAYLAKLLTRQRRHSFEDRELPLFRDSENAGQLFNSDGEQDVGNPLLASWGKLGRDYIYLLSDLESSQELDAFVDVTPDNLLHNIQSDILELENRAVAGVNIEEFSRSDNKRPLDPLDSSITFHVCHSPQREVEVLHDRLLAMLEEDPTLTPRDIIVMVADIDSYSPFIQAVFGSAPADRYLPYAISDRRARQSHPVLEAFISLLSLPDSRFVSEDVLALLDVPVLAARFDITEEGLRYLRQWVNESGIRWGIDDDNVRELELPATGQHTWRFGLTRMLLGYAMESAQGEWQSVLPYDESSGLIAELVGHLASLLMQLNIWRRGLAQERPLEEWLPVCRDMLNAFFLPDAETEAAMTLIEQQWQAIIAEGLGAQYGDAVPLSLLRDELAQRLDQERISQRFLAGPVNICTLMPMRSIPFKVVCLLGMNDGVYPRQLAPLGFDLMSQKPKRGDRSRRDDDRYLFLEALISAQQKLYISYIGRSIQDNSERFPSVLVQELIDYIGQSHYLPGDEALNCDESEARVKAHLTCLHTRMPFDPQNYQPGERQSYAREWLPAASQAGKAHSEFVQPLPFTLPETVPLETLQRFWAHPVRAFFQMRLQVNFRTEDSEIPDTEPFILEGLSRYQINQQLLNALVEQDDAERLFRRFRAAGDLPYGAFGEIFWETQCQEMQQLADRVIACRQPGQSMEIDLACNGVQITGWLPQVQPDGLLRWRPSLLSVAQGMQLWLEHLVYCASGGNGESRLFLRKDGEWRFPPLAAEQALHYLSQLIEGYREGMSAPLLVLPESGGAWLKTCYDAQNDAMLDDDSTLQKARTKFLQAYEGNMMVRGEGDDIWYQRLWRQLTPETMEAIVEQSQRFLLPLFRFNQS
Exodeoxyribonuclease V, sequence (P08394 whole entry): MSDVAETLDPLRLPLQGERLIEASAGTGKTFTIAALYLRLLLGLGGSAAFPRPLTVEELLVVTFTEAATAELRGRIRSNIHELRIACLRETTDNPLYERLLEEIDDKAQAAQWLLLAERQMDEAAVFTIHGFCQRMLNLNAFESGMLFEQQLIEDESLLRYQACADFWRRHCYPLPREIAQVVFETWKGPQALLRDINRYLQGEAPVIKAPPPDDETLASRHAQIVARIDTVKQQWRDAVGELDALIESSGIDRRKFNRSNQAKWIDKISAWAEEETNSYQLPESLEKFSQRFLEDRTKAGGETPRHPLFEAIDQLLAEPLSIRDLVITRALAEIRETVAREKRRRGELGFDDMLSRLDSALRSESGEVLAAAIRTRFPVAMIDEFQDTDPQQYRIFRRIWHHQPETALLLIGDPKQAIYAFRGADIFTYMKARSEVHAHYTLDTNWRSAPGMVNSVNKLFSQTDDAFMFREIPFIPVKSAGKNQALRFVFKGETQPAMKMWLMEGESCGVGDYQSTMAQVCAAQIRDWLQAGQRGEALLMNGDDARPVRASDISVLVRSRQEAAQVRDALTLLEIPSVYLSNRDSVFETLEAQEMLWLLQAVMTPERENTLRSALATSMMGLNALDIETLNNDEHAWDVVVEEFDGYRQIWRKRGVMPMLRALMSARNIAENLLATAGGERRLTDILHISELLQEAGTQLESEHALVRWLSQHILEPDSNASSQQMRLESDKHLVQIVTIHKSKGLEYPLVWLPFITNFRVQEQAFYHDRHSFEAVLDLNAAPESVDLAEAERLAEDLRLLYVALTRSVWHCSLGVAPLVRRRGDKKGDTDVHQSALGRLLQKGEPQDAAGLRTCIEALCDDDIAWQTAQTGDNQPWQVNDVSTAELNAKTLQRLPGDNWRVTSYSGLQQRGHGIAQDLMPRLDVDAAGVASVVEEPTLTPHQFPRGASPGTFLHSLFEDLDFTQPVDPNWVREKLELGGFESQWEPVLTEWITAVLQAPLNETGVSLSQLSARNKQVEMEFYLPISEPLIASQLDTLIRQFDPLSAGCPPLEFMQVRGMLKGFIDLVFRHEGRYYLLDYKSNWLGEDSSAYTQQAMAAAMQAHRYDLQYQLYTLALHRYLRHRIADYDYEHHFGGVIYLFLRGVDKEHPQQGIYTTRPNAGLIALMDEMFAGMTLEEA
Data set [6] in a line: growth suppression of beta-catenin-knockout colon cells, dose response, cell-based, HCT116, human colon tumor (AID 1045).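 Further: HCT116 colon tumor cells with beta catenin knocked out; cells exposed to compound for 60 hours.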 It is filed as functional.
The nature of data set [7]: Counterscreen for AddAB inhibitors: absorbance-based bacterial cell-based high throughput dose response assay for inhibitors of bacterial viability. [Related pubchem assays (depositor defined):AID435030, AID449728, AID449731, AID488942, AID488955, AID488956]. It counts as functional.
A short description of data set [8]: growth suppression of PTEN-null colon cells, dose response, cell-based, HCT116 PTEN knockout (AID 1047).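 Further: HCT116 colon tumor cells with PTEN knocked out; cells exposed to compound for 60 hours before readout; potency for loss of cell viability measured by luminescence.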 It is filed as functional.
Data set [9] deals with Sphingosine 1-phosphate receptor 4 (Homo sapiens, UniProt O95977). Briefly: Fluorescence dose response cell-based high throughput screening assay for agonists of the Sphingosine 1-Phosphate Receptor 4 (S1P4). [Related pubchem assays: 1509 (Primary screen.), 1523 (Confirmation screen in triplicates.)]. It is filed as functional.
Sphingosine 1-phosphate receptor 4, sequence (O95977 whole entry): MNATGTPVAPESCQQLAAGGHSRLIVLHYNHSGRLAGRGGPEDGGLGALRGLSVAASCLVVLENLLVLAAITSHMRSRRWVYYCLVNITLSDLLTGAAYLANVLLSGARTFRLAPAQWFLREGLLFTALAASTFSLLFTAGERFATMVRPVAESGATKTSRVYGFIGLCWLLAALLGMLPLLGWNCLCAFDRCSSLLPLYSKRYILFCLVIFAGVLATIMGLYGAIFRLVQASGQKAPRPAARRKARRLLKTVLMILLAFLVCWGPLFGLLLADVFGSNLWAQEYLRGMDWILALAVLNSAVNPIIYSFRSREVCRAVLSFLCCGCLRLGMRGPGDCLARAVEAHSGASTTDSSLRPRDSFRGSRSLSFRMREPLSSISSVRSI
The target of data set [10] is Sphingosine 1-phosphate receptor 1 (Homo sapiens, UniProt P21453). Briefly: Fluorescence-based counterscreen assay for S1P4 agonists: Cell-based dose response high throughput screening assay to identify agonists of the Sphingosine 1-Phosphate Receptor 1 (S1P1). [Related pubchem assays (depositor defined):AID1509, AID1523, AID1801, AID463107, AID463118, AID463119, AID463122, AID463123, AID463129, AID463225, AID504400, AID504460]. It is filed as functional.
Sphingosine 1-phosphate receptor 1, sequence (P21453 whole entry): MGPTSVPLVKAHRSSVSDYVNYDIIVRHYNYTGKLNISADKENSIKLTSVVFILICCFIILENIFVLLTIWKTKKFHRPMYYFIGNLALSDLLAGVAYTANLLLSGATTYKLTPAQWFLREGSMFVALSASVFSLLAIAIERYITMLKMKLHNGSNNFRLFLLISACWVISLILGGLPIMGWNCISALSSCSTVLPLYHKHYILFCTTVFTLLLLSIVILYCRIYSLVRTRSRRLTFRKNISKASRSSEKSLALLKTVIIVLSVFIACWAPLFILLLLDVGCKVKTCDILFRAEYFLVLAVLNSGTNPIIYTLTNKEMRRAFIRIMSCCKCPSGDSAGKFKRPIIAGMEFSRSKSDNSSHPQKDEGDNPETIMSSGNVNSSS

Another data set concerns the target Cytochrome P450 3A4 (Homo sapiens, UniProt P08684).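 Further: CYP3A4 tested as one member of a cytochrome P450 panel screen.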
Another data set concerns the target Cytochrome P450 2C19 (Homo sapiens, UniProt P33261). The data set is described as follows: Cytochrome panel assay with activity outcomes. Panel member name: p450-cyp2c19 Compounds with AC50 equal or less than 10 uM are considered active. It counts as functional. To be noted: read-out: AC50.

Cytochrome P450 3A4, sequence (P08684 whole entry): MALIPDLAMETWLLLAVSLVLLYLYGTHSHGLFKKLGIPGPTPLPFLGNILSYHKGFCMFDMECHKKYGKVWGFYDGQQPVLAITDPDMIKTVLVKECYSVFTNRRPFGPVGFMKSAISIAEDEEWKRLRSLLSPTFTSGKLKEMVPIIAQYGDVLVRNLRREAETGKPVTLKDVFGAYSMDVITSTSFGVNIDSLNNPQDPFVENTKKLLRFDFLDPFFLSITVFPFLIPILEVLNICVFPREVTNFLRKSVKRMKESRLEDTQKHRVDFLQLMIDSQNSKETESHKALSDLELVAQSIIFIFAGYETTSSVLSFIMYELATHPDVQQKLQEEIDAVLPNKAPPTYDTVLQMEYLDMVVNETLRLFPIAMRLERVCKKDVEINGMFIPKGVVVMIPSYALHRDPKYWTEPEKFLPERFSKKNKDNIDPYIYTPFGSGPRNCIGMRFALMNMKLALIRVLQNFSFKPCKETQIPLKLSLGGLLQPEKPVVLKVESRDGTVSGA
Cytochrome P450 2C19, sequence (P33261 whole entry): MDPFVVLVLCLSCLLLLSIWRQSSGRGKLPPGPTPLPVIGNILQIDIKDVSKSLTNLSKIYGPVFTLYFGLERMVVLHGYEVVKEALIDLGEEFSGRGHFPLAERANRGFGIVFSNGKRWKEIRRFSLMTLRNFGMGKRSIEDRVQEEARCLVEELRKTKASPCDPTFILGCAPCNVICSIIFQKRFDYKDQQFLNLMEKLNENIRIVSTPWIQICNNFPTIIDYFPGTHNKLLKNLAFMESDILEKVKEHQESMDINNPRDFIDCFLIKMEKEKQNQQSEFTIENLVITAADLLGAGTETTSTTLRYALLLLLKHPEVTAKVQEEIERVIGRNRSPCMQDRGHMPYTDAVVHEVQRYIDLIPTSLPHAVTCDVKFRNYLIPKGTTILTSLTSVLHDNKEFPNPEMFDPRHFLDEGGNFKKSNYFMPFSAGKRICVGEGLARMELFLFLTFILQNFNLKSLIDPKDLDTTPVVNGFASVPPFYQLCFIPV

Turning to `O=C(Nc1ccc([N+](=O)[O-])cc1)Nc1ccc(OC(F)F)c(Cl)c1`, the AC50 in data set [1] was 3.59 µM (active); in data set [2], 4.77 µM (active); in data set [4] it was 1.22 µM (active); in data set [5], 6.24 µM (active). The CC50 in data set [3] is 2.83 µM (active). The IC50 on Beta-galactosidase is > 66.6 µM (inactive); at Exodeoxyribonuclease V, > 119 µM (inactive); in [7] it was > 119 µM (inactive). Further, the EC50 in data set [6] was 1.9 µM (active); in data set [8], 1.37 µM (active).

Consider `COc1ccc(C2CC(c3cccs3)=NN2c2ccccc2)cc1` (centres undefined), for which the EC50 is 12.3 µM (not active) in data set [9] and 5.45 µM (active) in [10].

With `O=C(c1ccco1)N1CCC2(CC1)CCN(c1ccccn1)CC2`, the AC50 entry at Cytochrome P450 3A4 is “inconclusive”; on Cytochrome P450 2C19, 31.6 µM (inconclusive).

One may read the AC50 as the concentration at which the activity in the assay is half-maximal. A word on the IC50: it is the concentration that gives 50% inhibition. The EC50 is the concentration that produces a half-maximal response.

Values taken from ChEMBL document CHEMBL1201862, “PubChem BioAssay data set” (2004).
